Measurements as given in publication PMC8386742, “Discovery of N-aryl sulphonamide-quinazoline derivatives as anti-gastric cancer agents in vitro and in vivo via activating the Hippo signalling pathway” (Journal of Enzyme Inhibition and Medicinal Chemistry, 2021).

Experiments:
MCF-7 cells = test: MTT antiproliferative assay, MCF-7 cells; type: cell-based, human; conditions: Homo sapiens, MCF7, 48 h, exposure for 48 h
Procedure: (§1) The in vitro antiproliferative activities of new target compounds 6a–6g, 9a–9i, 10a–10j, 11a–11j, and 14a–14d were evaluated against four human cancer cell lines (MGC-803, PC-3, HCT-116, and MCF-7) using MTT assay and 5-FU as a positive drug. The following Tables 1–[4] depicted the results of in vitro antiproliferative activity.
(§2) Cell lines used were cultured in humidified incubator in a humidified atmosphere of 5% CO2 and 95% air. The RPMI-1640 medium was supplemented with 10% foetal bovine serum, penicillin (100 U/ml) and streptomycin (0.1 mg/ml).
(§3) Cell lines were seeded into 96-well plates and incubated for 24 h. Then cells were treated with different concentrations of compounds. And after another 48 h, MTT reagent (20 μL per well) was added to each well and then incubated at 37 °C for 4 h. After the suspension was discarded, formazan was then dissolved with DMSO. Absorbencies of formazan solution were measured at 490 nm. The IC50 values of tested compounds were calculated by SPSS version 17.0.

PC-3 cells = test: MTT antiproliferative assay, PC-3 cells; type: cell-based, human; conditions: Homo sapiens, PC-3, exposure for 48 h
Procedure: as §1, §2, §3

HCT-116 cells = test: MTT antiproliferative assay, HCT-116 cells; type: cell-based, human; conditions: Homo sapiens, HCT-116, 48 h, exposure for 48 h
Procedure: as §1, §2, §3

MGC-803 cells = test: MTT antiproliferative assay, MGC-803 cells; type: cell-based, human; conditions: exposure for 48 h
Procedure: as §1, §2, §3

Structure (SMILES) | IC50 (MCF-7 cells) [µM] | IC50 (PC-3 cells) [µM] | IC50 (HCT-116 cells) [µM] | IC50 (MGC-803 cells; Homo sapiens, MGC-803, 48 h) [µM] | melting point [°C] | IC50 (MGC-803 cells) [µM]
COc1ccc(C(=O)N(Cc2nc(C)c3ccccc3n2)c2cc(OC)c(OC)c(OC)c2)cc1 [Compound 11h, 4-Methoxy-N-((4-methylquinazolin-2-yl)methyl)-N-(3,4,5-trimethoxyphenyl) benzamide] | 22.4 ± 1.54 | 18.7 ± 1.38 | 10.4 ± 1.04 | 5.82 ± 1.17 | – | –
COc1cc(N(Cc2nc(C)c3ccccc3n2)C(=O)c2ccc(Br)cc2)cc(OC)c1OC [Compound 11c, 4-Bromo-N-((4-methylquinazolin-2-yl)methyl)-N-(3,4,5-trimethoxyphenyl) benzamide] | 28.1 ± 1.47 | 26.8 ± 1.32 | 20.4 ± 1.23 | 13.6 ± 1.24 | 182 to 183 | –
COc1cc(N(Cc2nc(C)c3ccccc3n2)S(=O)(=O)c2ccccn2)cc(OC)c1OC [Compound 10j, N-((4-Methylquinazolin-2-yl)methyl)-N-(3,4,5-trimethoxyphenyl)pyridine-2-sulphonamide] | 34.2 ± 1.83 | 28.2 ± 1.98 | 24.8 ± 2.13 | 14.7 ± 1.88 | 159 to 160 | –
COc1cc(N(Cc2nc(C)c3ccccc3n2)C(=O)c2c(C)cc(C)cc2C)cc(OC)c1OC [Compound 11f, 2,4,6-Trimethyl-N-((4-methylquinazolin-2-yl)methyl)-N-(3,4,5-trimethoxyphenyl) benzamide] | > 40 | > 40 | 28.5 ± 2.64 | 32.8 ± 2.12 | 209 to 210 | –
COc1cc(N(Cc2nc(C)c3ccccc3n2)S(=O)(=O)c2ccccc2)cc(OC)c1OC [Compound 10a, N-((4-methylquinazolin-2-yl)methyl)-N-(3,4,5-trimethoxyphenyl) benzene-sulphonamide] | > 50 | 28.2 ± 2.12 | 16.7 ± 1.03 | 6.62 ± 0.82 | 178 to 179 | –
COc1ccc(S(=O)(=O)N(Cc2nc(C)c3ccccc3n2)c2ccc(C)cc2)cc1 [Compound 14d, 4-Methoxy-N-((4-methylquinazolin-2-yl)methyl)-N-(p-tolyl)benzene-sulphonamide] | > 50 | 45.7 ± 2.88 | > 50 | 42.2 ± 2.44 | 129 to 130 | –
COc1ccc(CN(c2cc(OC)c(OC)c(OC)c2)S(=O)(=O)c2ccc(F)cc2)cc1 [Compound 6a, 4-Fluoro-N-(4-methoxybenzyl)-N-(3,4,5-trimethoxyphenyl) benzene-sulphonamide] | > 40 | 18.8 ± 0.31 | 16.7 ± 1.03 | 6.62 ± 0.82 | 156 to 157 | –
COc1ccc(CN(c2cc(OC)c(OC)c(OC)c2)S(=O)(=O)c2cccs2)cc1 [Compound 6f, N-(4-methoxybenzyl)-N-(3,4,5-trimethoxyphenyl) thiophene-2-sulphonamide] | 26.1 ± 1.87 | 38.7 ± 2.87 | 38.1 ± 2.64 | 28.3 ± 2.86 | – | –
COc1ccc(S(=O)(=O)N(Cc2ccc(C)cc2)c2cc(OC)c(OC)c(OC)c2)cc1 [Compound 9d, 4-Methoxy-N-(4-methylbenzyl)-N-(3,4,5-trimethoxyphenyl) benzene-sulphonamide] | 41.8 ± 0.43 | 15.6 ± 1.57 | 11.9 ± 2.26 | 5.83 ± 1.75 | 164 to 165 | –
COc1cc(N(Cc2nc(C)c3ccccc3n2)C(=O)c2ccc(F)cc2)cc(OC)c1OC [Compound 11b, 4-Fluoro-N-((4-methylquinazolin-2-yl)methyl)-N-(3,4,5-trimethoxyphenyl) benzamide] | 29.7 ± 1.83 | 31.1 ± 2.04 | 18.9 ± 1.23 | 14.1 ± 1.01 | 162 to 163 | –
COc1cc(C(=O)N(Cc2nc(C)c3ccccc3n2)c2cc(OC)c(OC)c(OC)c2)cc(OC)c1OC [Compound 11i, 3,4,5-Trimethoxy-N-((4-methylquinazolin-2-yl)methyl)-N-(3,4,5-trimethoxyphenyl) benzamide] | > 40 | > 40 | 20.4 ± 1.92 | 16.8 ± 2.02 | 129 to 130 | –
COc1cc(N(Cc2nc(C)c3ccccc3n2)S(=O)(=O)c2cccs2)cc(OC)c1OC [Compound 10i, N-((4-Methylquinazolin-2-yl)methyl)-N-(3,4,5-trimethoxyphenyl)thiophene-2-sulphonamide] | 30.2 ± 1.81 | 27.8 ± 2.02 | 20.4 ± 1.92 | 16.8 ± 1.42 | 151 to 152 | –
COc1cc(N(Cc2nc(C)c3ccccc3n2)S(=O)(=O)c2ccc(C(C)(C)C)cc2)cc(OC)c1OC [Compound 10g, 4-(Tert-butyl)-N-((4-methylquinazolin-2-yl)methyl)-N-(3,4,5-trimethoxyphenyl) benzene-sulfonamide] | 28.1 ± 1.82 | 18.9 ± 1.57 | 22.4 ± 1.67 | 12.8 ± 1.38 | 144 to 145 | –
COc1cc(N(Cc2nc(C)c3ccccc3n2)C(=O)c2ccccc2)cc(OC)c1OC [Compound 11a, N-((4-Methylquinazolin-2-yl)methyl)-N-(3,4,5-trimethoxyphenyl) benzamide] | 25.3 ± 1.78 | 25.3 ± 1.78 | 19.8 ± 1.49 | 18.5 ± 1.17 | 112 to 113 | –
COc1ccc(S(=O)(=O)N(Cc2ccc(OC)c(OC)c2)c2cc(OC)c(OC)c(OC)c2)cc1 [Compound 9e, N-(3,4-dimethoxybenzyl)-4-methoxy-N-(3,4,5-trimethoxyphenyl) benzene-sulphonamide] | 22.9 ± 1.82 | 10.2 ± 0.52 | 8.6 ± 2.85 | 7.92 ± 2.26 | 136 to 137 | –
COc1ccc(CN(c2cc(OC)c(OC)c(OC)c2)S(=O)(=O)c2ccccc2)cc1 [Compound 6d] | > 40 | > 40 | > 40 | > 40 | – | –

The next lines start with the values.

IC50 (MCF-7 cells) [µM] | IC50 (PC-3 cells) [µM] | IC50 (HCT-116 cells) [µM] | IC50 (MGC-803 cells; Homo sapiens, MGC-803, 48 h) [µM] | melting point [°C] | IC50 (MGC-803 cells) [µM] | Structure (SMILES)
1.68 ± 0.12 | 4.01 ± 0.07 | 2.48 ± 0.12 | 1.04 | 182 to 183 | 1 ± 0.08 | COc1cc(N(Cc2nc(C)c3ccccc3n2)S(=O)(=O)c2ccc(C)cc2)cc(OC)c1OC [Compound 10e, 4-Methyl-N-((4-methylquinazolin-2-yl)methyl)-N-(3,4,5-trimethoxyphenyl) benzene-sulfonamide]
1.4 ± 0.25 | 1.81 ± 0.26 | 1.49 ± 0.22 | 0.82 ± 0.11 | 170 to 171 | – | COc1cc(N(Cc2nc(C)c3ccccc3n2)S(=O)(=O)c2ccc(Br)cc2)cc(OC)c1OC [Compound 10c, 4-Bromo-N-((4-methylquinazolin-2-yl)methyl)-N-(3,4,5-trimethoxyphenyl) benzene-sulfonamide]
5.46 ± 0.87 | 4.72 ± 1.02 | 3.84 ± 0.14 | 0.92 ± 1.07 | 162 to 163 | – | COc1cc(N(Cc2nc(C)c3ccccc3n2)S(=O)(=O)c2ccc(F)cc2)cc(OC)c1OC [Compound 10b, 4-Fluoro-N-((4-methylquinazolin-2-yl)methyl)-N-(3,4,5-trimethoxyphenyl) benzene-sulfonamide]
7.68 ± 1.82 | 4.01 ± 1.67 | 3.48 ± 1.22 | 2.86 ± 1.08 | 179 to 180 | – | COc1ccc(CN(c2cc(OC)c(OC)c(OC)c2)S(=O)(=O)c2ccc(OC)cc2)cc1 [Compound 6e, 4-Methoxy-N-(4-methoxybenzyl)-N-(3,4,5-trimethoxyphenyl) benzene-sulphonamide]
18.6 ± 1.32 | 24.9 ± 1.41 | – | 10.8 ± 1.18 | 196 to 197 | – | COc1cc(N(Cc2nc(C)c3ccccc3n2)C(=O)c2ccc(C)cc2)cc(OC)c1OC [Compound 11e, 4-Methyl-N-((4-methylquinazolin-2-yl)methyl)-N-(3,4,5-trimethoxyphenyl) benzamide]
11.2 ± 1.02 | 8.81 ± 0.98 | 6.18 ± 0.61 | 4.32 ± 0.65 | – | – | COc1ccc(CN(c2cc(OC)c(OC)c(OC)c2)S(=O)(=O)c2ccc(C)cc2)cc1 [Compound 6c]
22.1 ± 0.31 | > 50 | 18.7 ± 1.27 | > 50 | 183 to 184 | – | COc1cc(N(Cc2nc(C)c3ccccc3n2)S(=O)(=O)c2ccccc2Cl)cc(OC)c1OC [Compound 10d, 2-Chloro-N-((4-methylquinazolin-2-yl)methyl)-N-(3,4,5-trimethoxyphenyl) benzene-sulfonamide]
6.31 ± 1.11 | 11.3 ± 1.11 | 6.92 ± 0.79 | 1.31 ± 0.08 | 158 to 159 | – | COc1ccc(S(=O)(=O)N(Cc2cccnc2)c2cc(OC)c(OC)c(OC)c2)cc1 [Compound 9f, 4-Methoxy-N-(pyridin-3-ylmethyl)-N-(3,4,5-trimethoxyphenyl) benzene-sulphonamide]
11.5 ± 1.03 | 8.28 ± 3.4 | 12.1 ± 0.85 | 5.48 ± 0.58 | – | – | COc1ccc(S(=O)(=O)N(Cc2c(C)noc2C)c2cc(OC)c(OC)c(OC)c2)cc1 [Compound 9h, N-((3,5-dimethylisoxazol-4-yl)methyl)-4-methoxy-N-(3,4,5-trimethoxyphenyl) benzene-sulfonamide]
